Reference: US10010561B2, “Method of treating cancer using high efficiency self-illuminative nanocomplexes and method of manufacturing the same” (Research & Business Foundation Sungkyunkwan University, priority 2014, dated 2018)
{SH} = thiol linker

B1: m-Rluc8: modified self-illuminative protein of SEQ. ID. NO: 1, wild-type Renilla luciferase mutated at 8 sites (protein)
chain: MASKVYDPEQRKRMITGPQWWARCKQMNVLDSFINYYDSEKHAENAVIFLHGNATSSYLWRHVVPHIEPVARCIIPDLIGMGKSGKSGNGSYRLLDHYKYLTAWFELLNLPKKIIFVGHDWGAALAFHYAYEHQDRIKAIVHMESVVDVIESWDEWPDIEEDIALIKSEEGEKMVLENNFFVETVLPSKIMRKLEPEEFAAYLEPFKEKGEVRRPTLSWPREIPLVKGGKPDVVQIVRNYNAYLRASDDLPKLFIESDPGFFSNAIVEGAKKFPNTEFVKVKGLHFLQEDAPDEMGKYIKSFVERVLKNEQ
modifications: Renilla luciferase
notes: ID; NO: 1, wild-type Renilla luciferase mutated at 8 sites

What was measured:
[1] = doxorubicin capture in linear nucleic acid, doxorubicin autofluorescence; assay type: physicochemical; conditions: room temperature, 24 hours; linear nucleic acid:doxorubicin 1:1 to 1:20; FIG. 5
Description: To contain doxorubicin in a new nucleic acid-based functional anticancer drug, linear nucleic acids represented by SEQ. ID. NO: 2 ([NT]) and SEQ. ID. NO: 3 (5'-/thiol/[NT]3') were used. To prepare a doxorubicin-binding linear nucleic acid, the linear nucleic acid and doxorubicin were mixed with various concentrations (linear nucleic acid:doxorubicin=1:1 to 1:20) and reacted at room temperature for 24 hours, and autofluorescence of the doxorubicin was detected.

[2] = luminescence activity of m-Rluc8 compared with wild-type luciferase; assay type: biochemical; conditions: versus wild-type luciferase purified by the same method; FIG. 2
Source text: To obtain a high efficiency self-luminescent light source, a modified self-illuminative protein (m-Rluc8) in which artificial mutation occurred on an amino acid sequence of a wild-type luciferase was expressed in E. coli and purified. That is, an expression vector (m-Rluc8_pPAL7) into which the modified self-illuminative protein (m-Rluc8) consisting of an amino acid sequence (SEQ. ID. NO: 1) shown in FIG. 1 was inserted was manufactured, transformed into and expressed in E. coli BL21 strain cells and then purified, thereby obtaining a high purity modified self-illuminative protein (m-Rluc8).

Row | Molecule | maximum doxorubicin binding to 1 μM linear nucleic acid [1] | luminescence activity relative to wild-type luciferase [2]
1 | linear nucleic acid (DNA GTCGCAGGCACATCAGTACAGCCAGATCCGTACCTACTCG; DNA, 5' {SH}, backbone and methylation of C not given here; conjugated to gold) | 10 µM | –
2 | B1 | – | more than 5.65 fold
